# Source: patent publication US8623613B2, “Method to detect endothelial cell massive calcium accumulation death” (priority 2010, dated 2014)
# Test system: Human umbilical vein endothelial cells
# Experiment: HUVEC culture 72 hours, fast green staining, image analysis count of NSD and MCAD cells
# Settings: for number of cells per field exhibiting MCAD: vehicle alone approximately 10; for number of cells showing non-specific cell death (NSD): vehicle alone approximately 125
# Method: After 72 hours, the cells were stained with fast green and sedimented on microscope slides with a Cytospin™ centrifuge. Endothelial cells with non-specific death (NSD) stain pale blue green and endothelial cells with specific, massive-calcium accumulation death (MCAD) stain densely refractile hyperchromatic blue-black. The number of each type of cell was quantified using image analysis software.
compound,measurement,value
COc1cccc2c1C(=O)c1c(O)c3c(c(O)c1C2=O)C[C@@](O)(C(=O)CO)C[C@@H]3O[C@H]1C[C@H](N)[C@H](O)[C@H](C)O1 [doxorubicin],number of cells per field exhibiting MCAD,4 cells per field
same,number of cells showing non-specific cell death (NSD),160 cells per field
bevacizumab [Avastin ®],number of cells per field exhibiting MCAD,35 cells per field
same,number of cells showing non-specific cell death (NSD),about 100 cells per field
